According to article PMC5218480 (PLoS ONE, 2017):

Tested on: MV-4-11 cells
Test: Gene expression microarray analysis (Affymetrix PrimeView) and GSEA
Format: cell-based, human
Design: RFU PODN (11730768_x_at) / Fold change /veh PODN (11730768_x_at) / RFU LINC00158 (11744669_a_at) / Fold change /veh LINC00158 (11744669_a_at) / RFU DUSP10 (11751237_a_at) / Fold change /veh DUSP10 (11751237_a_at) / RFU ID3 (11757404_x_at) / Fold change /veh ID3 (11757404_x_at) / RFU PLEKHG5 (11737974_s_at) / Fold change /veh PLEKHG5 (11737974_s_at) / RFU LRRC4B (11730491_at) / Fold change /veh LRRC4B (11730491_at) / RFU GIMAP4 (11747438_a_at) / Fold change /veh GIMAP4 (11747438_a_at) / RFU KRT8 (11758183_x_at) / Fold change /veh KRT8 (11758183_x_at) / RFU CNN1 (11734310_a_at) / Fold change /veh CNN1 (11734310_a_at) / RFU VPS37D (11726825_at) / Fold change /veh VPS37D (11726825_at) / RFU C10orf10 (11716522_x_at) / Fold change /veh C10orf10 (11716522_x_at) / RFU KIR2DL2 /// KIR2DL4 /// KIR2DL5A /// KIR2DL5B /// KIR2DS1 /// KIR2DS2 /// KIR2DS3 /// KIR2DS4 /// KIR3DL3 /// KIR3DL3 /// KIR3DS1 (11738374_at) / Fold change /veh KIR2DL2 /// KIR2DL4 /// KIR2DL5A /// KIR2DL5B /// KIR2DS1 /// KIR2DS2 /// KIR2DS3 /// KIR2DS4 /// KIR3DL3 /// KIR3DL3 /// KIR3DS1 (11738374_at) / RFU C1QL1 (11718748_at) / Fold change /veh C1QL1 (11718748_at) / RFU TMPRSS4 (11747572_a_at) / Fold change /veh TMPRSS4 (11747572_a_at) / RFU HAMP (11756126_x_at) / Fold change /veh HAMP (11756126_x_at) / RFU RNFT2 (11725882_a_at) / Fold change /veh RNFT2 (11725882_a_at) / RFU NR4A2 (11747474_a_at) / Fold change /veh NR4A2 (11747474_a_at) / RFU ABCC12 (11746883_a_at) / Fold change /veh ABCC12 (11746883_a_at) / RFU TMEM136 (11760407_x_at) / Fold change /veh TMEM136 (11760407_x_at) / RFU CLDN22 /// WWC2 (11732394_at) / Fold change /veh CLDN22 /// WWC2 (11732394_at) / RFU HLA-DPB1 (11760878_x_at) / Fold change /veh HLA-DPB1 (11760878_x_at) / RFU SPINT1 (11716480_a_at) / Fold change /veh SPINT1 (11716480_a_at) / RFU GAP43 (11754022_s_at) / Fold change /veh GAP43 (11754022_s_at) / RFU A4GNT (11735810_at) / Fold change /veh A4GNT (11735810_at) / RFU PRB3 (11715151_x_at) / Fold change /veh PRB3 (11715151_x_at) / RFU TUBB4B (11761932_at) / Fold change /veh TUBB4B (11761932_at) / RFU CAPN14 (11732068_a_at) / Fold change /veh CAPN14 (11732068_a_at) / RFU TMCC2 (11721928_a_at) / Fold change /veh TMCC2 (11721928_a_at) / RFU IRGQ (11745062_a_at) / Fold change /veh IRGQ (11745062_a_at) / RFU FAM174B (11720279_a_at) / Fold change /veh FAM174B (11720279_a_at) / RFU TMPRSS4 (11748680_a_at) / Fold change /veh TMPRSS4 (11748680_a_at) / RFU FAM212B (11763350_a_at) / Fold change /veh FAM212B (11763350_a_at) / RFU PLEKHG5 (11743358_a_at) / Fold change /veh PLEKHG5 (11743358_a_at) / RFU ZSCAN30 (11745921_a_at) / Fold change /veh ZSCAN30 (11745921_a_at) / RFU CMKLR1 (11741424_a_at) / Fold change /veh CMKLR1 (11741424_a_at) / RFU LOC101060620 /// MAPK8IP1 (11723275_at) / Fold change /veh LOC101060620 /// MAPK8IP1 (11723275_at) / RFU SPTSSB (11747773_x_at) / Fold change /veh SPTSSB (11747773_x_at) / RFU PRSS12 (11739890_at) / Fold change /veh PRSS12 (11739890_at) / RFU BIN1 (11741810_x_at) / Fold change /veh BIN1 (11741810_x_at) / RFU WNT11 (11732464_a_at) / Fold change /veh WNT11 (11732464_a_at) / RFU C10orf10 (11716521_a_at) / Fold change /veh C10orf10 (11716521_a_at) / RFU C5orf56 (11738089_at) / Fold change /veh C5orf56 (11738089_at) / RFU CYB561 (11721691_x_at) / Fold change /veh CYB561 (11721691_x_at) / RFU ANKRD19P (11752326_a_at) / Fold change /veh ANKRD19P (11752326_a_at) / RFU OR2T12 /// OR2T33 /// OR2T8 (11738714_s_at) / Fold change /veh OR2T12 /// OR2T33 /// OR2T8 (11738714_s_at) / RFU VCAN (11748164_a_at) / Fold change /veh VCAN (11748164_a_at) / RFU JSRP1 (11732532_at) / Fold change /veh JSRP1 (11732532_at) / RFU KRTAP10-11 (11738290_x_at) / Fold change /veh KRTAP10-11 (11738290_x_at) / RFU MYO3A (11730013_a_at) / Fold change /veh MYO3A (11730013_a_at) / RFU EBF3 (11725865_a_at) / Fold change /veh EBF3 (11725865_a_at) / RFU CAMK2N1 (11719241_x_at) / Fold change /veh CAMK2N1 (11719241_x_at) / RFU C5orf56 (11738088_a_at) / Fold change /veh C5orf56 (11738088_a_at) / RFU OLFML3 (11715873_a_at) / Fold change /veh OLFML3 (11715873_a_at) / RFU LOC100653217 /// NTM (11731650_a_at) / Fold change /veh LOC100653217 /// NTM (11731650_a_at) / RFU MAPK11 (11762145_a_at) / Fold change /veh MAPK11 (11762145_a_at) / RFU FIZ1 (11724087_x_at) / Fold change /veh FIZ1 (11724087_x_at) / RFU OASL (11726364_x_at) / Fold change /veh OASL (11726364_x_at) / RFU SOX15 (11748057_x_at) / Fold change /veh SOX15 (11748057_x_at) / RFU CD79A (11719716_a_at) / Fold change /veh CD79A (11719716_a_at) / RFU HIST1H1D (11736915_at) / Fold change /veh HIST1H1D (11736915_at) / RFU CASKIN2 (11723855_a_at) / Fold change /veh CASKIN2 (11723855_a_at) / RFU LOC730098 (11760151_x_at) / Fold change /veh LOC730098 (11760151_x_at) / RFU OR4N2 (11742367_at) / Fold change /veh OR4N2 (11742367_at) / RFU PRRT2 (11749266_a_at) / Fold change /veh PRRT2 (11749266_a_at) / RFU SNX32 (11753110_a_at) / Fold change /veh SNX32 (11753110_a_at) / RFU CDHR5 (11726645_a_at) / Fold change /veh CDHR5 (11726645_a_at) / RFU RCAN1 (11760418_a_at) / Fold change /veh RCAN1 (11760418_a_at) / RFU FAM167A (11723789_a_at) / Fold change /veh FAM167A (11723789_a_at) / RFU FAM26E (11764081_at) / Fold change /veh FAM26E (11764081_at) / RFU ISYNA1 (11749810_s_at) / Fold change /veh ISYNA1 (11749810_s_at) / RFU ACY1 (11761880_at) / Fold change /veh ACY1 (11761880_at) / RFU 11764098_at / Fold change /veh 11764098_at / RFU SAMD14 (11745864_x_at) / Fold change /veh SAMD14 (11745864_x_at) / RFU NPB (11741838_a_at) / Fold change /veh NPB (11741838_a_at) / RFU TMPRSS6 (11731388_a_at) / Fold change /veh TMPRSS6 (11731388_a_at) / RFU KRTAP10-2 (11738614_at) / Fold change /veh KRTAP10-2 (11738614_at) / RFU ARHGAP8 /// PRR5-ARHGAP8 (11727945_x_at) / Fold change /veh ARHGAP8 /// PRR5-ARHGAP8 (11727945_x_at) / RFU KRTAP5-7 /// NADSYN1 (11734609_at) / Fold change /veh KRTAP5-7 /// NADSYN1 (11734609_at) / RFU RASL12 (11751679_a_at) / Fold change /veh RASL12 (11751679_a_at) / RFU CDKN2B (11736163_a_at) / Fold change /veh CDKN2B (11736163_a_at) / RFU PRF1 (11729649_at) / Fold change /veh PRF1 (11729649_at) / RFU, ZNF638 /// ZNF638-IT1 / Fold change vs veh, ZNF638 /// ZNF638-IT1 / RFU, PANK3 / Fold change vs veh, PANK3 / RFU, SH3YL1 / Fold change vs veh, SH3YL1 / RFU, ZEB2 / Fold change vs veh, ZEB2 / RFU, NRIP1 / Fold change vs veh, NRIP1 / RFU, PTTG1IP / Fold change vs veh, PTTG1IP / RFU, CAPN2 / Fold change vs veh, CAPN2 / RFU, MED14 / Fold change vs veh, MED14 / RFU, SNORA58 / Fold change vs veh, SNORA58 / RFU, C1orf63 / Fold change vs veh, C1orf63 / RFU, LRRFIP1 / Fold change vs veh, LRRFIP1 / RFU, NDUFAF7 / Fold change vs veh, NDUFAF7 / RFU, SLC12A2 / Fold change vs veh, SLC12A2 / RFU, IBTK / Fold change vs veh, IBTK / RFU, ESF1 / Fold change vs veh, ESF1 / Fold change vs veh, TMEM50B / RFU, TAOK1 / Fold change vs veh, TAOK1 / RFU, ACBD3 / Fold change vs veh, ACBD3 / RFU, TMA16 / Fold change vs veh, TMA16 / RFU, RWDD3 / Fold change vs veh, RWDD3 / RFU, BCAT1 / Fold change vs veh, BCAT1 / RFU, EDEM3 / Fold change vs veh, EDEM3 / RFU, TMEM33 / Fold change vs veh, TMEM33 / RFU, WDR75 / Fold change vs veh, WDR75 / RFU, AHCTF1 / Fold change vs veh, AHCTF1 / RFU, TFRC / Fold change vs veh, TFRC / RFU, ZDHHC17 / Fold change vs veh, ZDHHC17 / RFU, NOM1 / Fold change vs veh, NOM1 / RFU, ARL8B / Fold change vs veh, ARL8B / RFU, ZBTB11 / Fold change vs veh, ZBTB11 / RFU, TAMM41 / Fold change vs veh, TAMM41 / RFU, KIAA1704 /// LOC100996395 / Fold change vs veh, KIAA1704 /// LOC100996395 / RFU, ING1 / Fold change vs veh, ING1 / RFU, TRMT61B / Fold change vs veh, TRMT61B / RFU, FUBP3 / Fold change vs veh, FUBP3 / RFU, TP53 / Fold change vs veh, TP53 / RFU, TNKS2 / Fold change vs veh, TNKS2 / RFU, ZFP14 / Fold change vs veh, ZFP14 / RFU, ACTR2 / Fold change vs veh, ACTR2 / RFU, PPP3R1 / Fold change vs veh, PPP3R1 / RFU, PIK3R1 / Fold change vs veh, PIK3R1 / RFU, HNRNPA1 / Fold change vs veh, HNRNPA1 / RFU, RNF170 / Fold change vs veh, RNF170 / RFU, ZNF28 / Fold change vs veh, ZNF28 / RFU, RNGTT / Fold change vs veh, RNGTT / RFU, OGT / Fold change vs veh, OGT / RFU, BRD1 / Fold change vs veh, BRD1 / RFU, MARS / Fold change vs veh, MARS / RFU, ZNF655 / Fold change vs veh, ZNF655 / RFU, FAHD1 / Fold change vs veh, FAHD1 / RFU, BDP1 / Fold change vs veh, BDP1 / RFU, LRRCC1 / Fold change vs veh, LRRCC1 / RFU, ARID1A / Fold change vs veh, ARID1A / RFU, ZNF146 / Fold change vs veh, ZNF146 / RFU, ZNF330 / Fold change vs veh, ZNF330 / RFU, GPN3 / Fold change vs veh, GPN3 / RFU, C9orf123 / Fold change vs veh, C9orf123 / RFU, N4BP2L2 / Fold change vs veh, N4BP2L2 / RFU, ARFIP1 / Fold change vs veh, ARFIP1 / RFU, FAM179B / Fold change vs veh, FAM179B / RFU, BCL10 / Fold change vs veh, BCL10 / RFU, UHRF1BP1L / Fold change vs veh, UHRF1BP1L / RFU, BET1 / Fold change vs veh, BET1 / RFU, CNOT2 / Fold change vs veh, CNOT2 / RFU, ZNF268 / Fold change vs veh, ZNF268 / Fold change vs veh, ZNF507 / RFU, DGCR2 / Fold change vs veh, DGCR2 / RFU, WDSUB1 / Fold change vs veh, WDSUB1 / Fold change vs veh, HSP90B1 /// MIR3652 / RFU, ADSS / Fold change vs veh, ADSS / RFU, GK / Fold change vs veh, GK / RFU, ZNF148 / Fold change vs veh, ZNF148 / RFU, TAF9 / Fold change vs veh, TAF9 / RFU, SLC1A5 / Fold change vs veh, SLC1A5 / RFU, SLMO2 / Fold change vs veh, SLMO2 / RFU, ABCC4 / Fold change vs veh, ABCC4 / RFU, LOC101060439 /// RAP1B / Fold change vs veh, LOC101060439 /// RAP1B / RFU, RFX7 / Fold change vs veh, RFX7 / RFU, GTPBP10 / Fold change vs veh, GTPBP10 / RFU, CNEP1R1 / Fold change vs veh, CNEP1R1 / RFU, BIVM-ERCC5 /// ERCC5 / Fold change vs veh, BIVM-ERCC5 /// ERCC5 / RFU, ILF3 / Fold change vs veh, ILF3 / RFU 11762660_at / Fold change /veh 11762660_at / RFU VCAN (11757783_s_at) / Fold change /veh VCAN (11757783_s_at) / RFU DDX43 (11728927_at) / Fold change /veh DDX43 (11728927_at) / RFU KRT8 (11758188_x_at) / Fold change /veh KRT8 (11758188_x_at) / RFU NKD1 (11759106_at) / Fold change /veh NKD1 (11759106_at) / RFU SRD5A1 (11742802_a_at) / Fold change /veh SRD5A1 (11742802_a_at) / RFU TPSAB1 /// TPSB2 (11721975_s_at) / Fold change /veh TPSAB1 /// TPSB2 (11721975_s_at) / RFU GSTM3 (11746129_a_at) / Fold change /veh GSTM3 (11746129_a_at) / RFU IL23R (11737362_x_at) / Fold change /veh IL23R (11737362_x_at) / RFU TMEM51 (11727254_a_at) / Fold change /veh TMEM51 (11727254_a_at) / RFU PIWIL2 (11732686_x_at) / Fold change /veh PIWIL2 (11732686_x_at) / RFU ORM1 (11744905_x_at) / Fold change /veh ORM1 (11744905_x_at) / RFU CCDC152 (11743942_at) / Fold change /veh CCDC152 (11743942_at) / RFU ECM1 (11717891_a_at) / Fold change /veh ECM1 (11717891_a_at) / RFU IL23R (11748794_a_at) / Fold change /veh IL23R (11748794_a_at) / RFU TNFAIP8L3 (11732012_x_at) / Fold change /veh TNFAIP8L3 (11732012_x_at) / RFU MBOAT4 (11741988_at) / Fold change /veh MBOAT4 (11741988_at) / RFU 11764193_at / Fold change /veh 11764193_at / RFU TMEM53 (11763286_at) / Fold change /veh TMEM53 (11763286_at) / RFU MAGEB2 (11727129_at) / Fold change /veh MAGEB2 (11727129_at) / RFU TMEM200A (11744735_a_at) / Fold change /veh TMEM200A (11744735_a_at) / RFU CCDC152 (11751479_a_at) / Fold change /veh CCDC152 (11751479_a_at) / RFU FAM211A (11726209_a_at) / Fold change /veh FAM211A (11726209_a_at) / RFU RGS16 (11746705_a_at) / Fold change /veh RGS16 (11746705_a_at) / RFU VCAN (11755009_s_at) / Fold change /veh VCAN (11755009_s_at) / RFU RHOB (11743442_s_at) / Fold change /veh RHOB (11743442_s_at) / RFU RGS16 (11720943_a_at) / Fold change /veh RGS16 (11720943_a_at) / RFU RGS16 (11720944_at) / Fold change /veh RGS16 (11720944_at) / RFU, VPS4B / Fold change vs veh, VPS4B / RFU, CREB1 / Fold change vs veh, CREB1 / RFU, DNAJC13 / Fold change vs veh, DNAJC13 / RFU, GNAQ / Fold change vs veh, GNAQ / RFU, CDK5R1 / Fold change vs veh, CDK5R1 / RFU, ZRANB3 / Fold change vs veh, ZRANB3 / RFU, CUL4A / Fold change vs veh, CUL4A / RFU, CCNY / Fold change vs veh, CCNY / RFU, UFL1 / Fold change vs veh, UFL1 / RFU, COG3 / Fold change vs veh, COG3 / RFU, DIAPH2 / Fold change vs veh, DIAPH2 / RFU, SKA2 / Fold change vs veh, SKA2 / RFU, AFF3 / Fold change vs veh, AFF3 / RFU, LMF1 / Fold change vs veh, LMF1 / RFU, IPO11 / Fold change vs veh, IPO11 / RFU, DFFB / Fold change vs veh, DFFB / RFU, FOXP1 / Fold change vs veh, FOXP1 / RFU, CARD8 / Fold change vs veh, CARD8 / RFU, STRN3 / Fold change vs veh, STRN3 / RFU, ADK / Fold change vs veh, ADK / RFU, RASSF2 / Fold change vs veh, RASSF2 / RFU, WIPF1 / Fold change vs veh, WIPF1 / RFU, LARP1B / Fold change vs veh, LARP1B / RFU, RASA1 / Fold change vs veh, RASA1 / RFU, RB1 / Fold change vs veh, RB1 / RFU, PPFIA1 / Fold change vs veh, PPFIA1 / RFU, MAT2A / Fold change vs veh, MAT2A / RFU, CCT5 / Fold change vs veh, CCT5 / RFU, WDR92 / Fold change vs veh, WDR92 / RFU, CUX1 / Fold change vs veh, CUX1 / RFU, TTC7A / Fold change vs veh, TTC7A / RFU, TMEM135 / Fold change vs veh, TMEM135 / RFU, DEPTOR / Fold change vs veh, DEPTOR / RFU, CPM / Fold change vs veh, CPM / RFU, DNAJB6 / Fold change vs veh, DNAJB6 / RFU, CACNA2D3 / Fold change vs veh, CACNA2D3 / RFU, DTX4 / Fold change vs veh, DTX4 / RFU, TFCP2 / Fold change vs veh, TFCP2 / RFU, GMCL1 /// GMCL1P1 / Fold change vs veh, GMCL1 /// GMCL1P1 / RFU, AEBP2 / Fold change vs veh, AEBP2 / RFU, SNHG1 /// SNORD22 /// SNORD25 /// SNORD26 /// SNORD27 /// SNORD28 /// SNORD29 /// SNORD31 / Fold change vs veh, SNHG1 /// SNORD22 /// SNORD25 /// SNORD26 /// SNORD27 /// SNORD28 /// SNORD29 /// SNORD31 / Fold change (Aza/veh), C12orf56 (ProbeSet 11735607_a_at) / Fold change (ACY-1035/veh), C12orf56 (ProbeSet 11735607_a_at) / Fold change (Aza/veh), FGFR1OP (ProbeSet 11751329_s_at) / Fold change (ACY-1035/veh), FGFR1OP (ProbeSet 11751329_s_at) / Fold change (Aza/veh), VPS36 (ProbeSet 11739960_a_at) / Fold change (ACY-1035/veh), VPS36 (ProbeSet 11739960_a_at) / RFU SYPL1 (11715823_x_at) / Fold change /veh SYPL1 (11715823_x_at) / RFU IGFBP7 (11715501_s_at) / Fold change /veh IGFBP7 (11715501_s_at) / RFU REEP3 (11722064_at) / Fold change /veh REEP3 (11722064_at) / RFU IGLL1 (11728026_x_at) / Fold change /veh IGLL1 (11728026_x_at): dose or concentration left out as unconfirmed
Settings: ProbeSet 11728879_at; LIST B

Question: For Nc1ncn([C@@H]2O[C@H](CO)[C@@H](O)[C@H]2O)c(=O)n1 [azacitidine], which “Fold change vs veh, PPP3R1” value is on record?
Answer: 0.88
